{
  "source": "patent US20130196900A1",
  "about": "“ENHANCEMENT OF INNATE RESISTANCE TO INFECTION” (priority 2007, published 2013)",
  "key": {"peritoneal cells": {"test_system": "peritoneal cells", "experiment": "Analysis of peritoneal cells after i.p. injection (FACS)", "format": "in vivo, Balb/c mice", "settings": "peritoneum, data not shown"}, "Phase II C. burnetii [1]": {"test_system": "Phase II C. burnetii", "format": "in vivo"}, "host macrophages": {"test_system": "host macrophages", "settings": "24 hours"}, "C. burnetii": {"test_system": "C. burnetii", "settings": "24 hours"}, "[2]": {"test_system": "C. burnetii (Phase II Nine Mile strain)", "format": "cell-based", "settings": "96 hours"}, "Phase II C. burnetii [3]": {"test_system": "Phase II C. burnetii", "format": "cell-based", "settings": "96 hours"}, "[4]": {"test_system": "C. burnetii (Phase II Nine Mile strain)", "format": "cell-based", "settings": "96 hours", "remark": "listed apart in the source"}, "cathepsin D": {"test_system": "cathepsin D", "format": "cell-based, mouse"}, "TLR-1 to 10": {"test_system": "TLR-1 to 10", "experiment": "TLR activation assay (THP1-Blue-CD14/SEAP)", "format": "cell-based", "settings": "securinine 50 or 25 μM, 24 hours"}, "MonoMac-1 cells": {"test_system": "MonoMac-1 cells", "experiment": "IL-8 assay in MonoMac-1 cells (ELISA)", "format": "cell-based, human", "settings": "securinine 25 μM vs carrier/buffer control"}, "[5]": {"settings": "concentrations as high as 10 mg/kg or greater i.p.; cited from earlier work"}, "p38 map kinase": {"test_system": "p38 map kinase", "experiment": "p38 MAP kinase Western blot in Monomac-1 cells", "format": "cell-based, human", "settings": "50 μM securinine"}},
  "note": "Where “and” joins values, the source holds several entries; their conditions need not be identical. Equal values may be shown once. Read-outs that look alike come from different tables or passages of the source.",
  "data": [
    {"compound": "Pam3CGDPKHPKSF [FSL-1]", "values": [
      {"measurement": "neutrophil and macrophage activation: CD11b and Ly6C expression", "setting": "peritoneal cells", "result": "increased"},
      {"measurement": "bacterial burden by PCR, lower than buffer alone", "setting": "Phase II C. burnetii [1]; in vivo", "result": "> 10", "unit": "fold"},
      {"measurement": "bacterial counts by PCR", "setting": "Phase II C. burnetii [1]; in vivo", "result": "reduced bacterial counts"},
      {"measurement": "efficiency in inducing enhanced C. burnetii clearance, share of animals", "setting": "Phase II C. burnetii [1]; in vivo", "result": "61% and 100%"},
      {"measurement": "mice showing a reduction of C. burnetii", "setting": "Phase II C. burnetii [1]; in vivo", "result": 11, "unit": "mice"},
      {"measurement": "mice with lower spleen weight and bacterial burden", "setting": "Phase II C. burnetii [1]; in vivo", "result": "5 out of 5"},
      {"measurement": "spleen weight", "setting": "Phase II C. burnetii [1]; in vivo", "result": "significantly lower"},
      {"measurement": "splenomegaly (spleen weight)", "setting": "Phase II C. burnetii [1]; in vivo", "result": "reduced the splenomegaly"},
      {"measurement": "total C. burnetii DNA from spleen and liver", "setting": "Phase II C. burnetii [1]; in vivo", "result": "lower"},
      {"measurement": "viable bacterial counts in the spleen (bacLight FACS assay)", "setting": "Phase II C. burnetii [1]; in vivo", "result": "enhanced clearance of C. burnetii"},
      {"measurement": "spleen C. burnetii numbers (PCR quantification of bacterial DNA)", "setting": "Phase II C. burnetii [1]; in vivo, ip", "result": "reduced"},
      {"measurement": "direct killing of host cells", "setting": "host macrophages", "result": "Neither of the compounds, at concentrations that induced killing in vitro and in vivo, induced direct killing"},
      {"measurement": "direct killing of C. burnetii", "setting": "C. burnetii", "result": "Neither of the compounds, at concentrations that induced killing in vitro and in vivo, induced direct killing"},
      {"measurement": "C. burnetii content of infected cells", "setting": "[2]", "result": "less C. burnetii"}
    ]},
    {"compound": "O=C1C=C2C=C[C@@H]3C[C@@]2(O1)[C@H]1CCCCN31", "note": "[securinine]", "values": [
      {"measurement": "percent C. burnetii killing", "setting": "Phase II C. burnetii [3]", "result": "> 80", "unit": "%"},
      {"measurement": "C. burnetii killing", "setting": "[4]", "result": "induced killing of C. burnetii"},
      {"measurement": "cathepsin D expression in infected macrophages", "setting": "cathepsin D", "result": "induced cathepsin D expression"},
      {"measurement": "TLR-1 to 10 signaling (SEAP release)", "setting": "TLR-1 to 10", "result": "not detected"},
      {"measurement": "C. burnetii burden (viable bacterial counts)", "setting": "Phase II C. burnetii [1]; 96 hr", "result": "significantly (P value <0.05) lower"},
      {"measurement": "spleen weights", "setting": "Phase II C. burnetii [1]; 96 hr", "result": "significantly (P value <0.05) lower"},
      {"measurement": "reduction in C. burnetii, PCR assay for bacterial DNA", "setting": "Phase II C. burnetii [1]; in vivo, ip", "result": 10, "unit": "fold"},
      {"measurement": "reduction in C. burnetii, viability assay", "setting": "Phase II C. burnetii [1]; in vivo, ip", "result": 10, "unit": "fold"},
      {"measurement": "direct killing of host cells", "setting": "host macrophages", "result": "Neither of the compounds, at concentrations that induced killing in vitro and in vivo, induced direct killing"},
      {"measurement": "direct killing of C. burnetii", "setting": "C. burnetii", "result": "Neither of the compounds, at concentrations that induced killing in vitro and in vivo, induced direct killing"},
      {"measurement": "IL-8 secretion", "setting": "MonoMac-1 cells", "result": "potent inducer of IL-8 secretion"},
      {"measurement": "toxicity", "setting": "[5]", "result": "without any obvious toxicity"},
      {"measurement": "C. burnetii killing", "setting": "[2]", "result": "induced killing of C. burnetii"},
      {"measurement": "p38Map kinase activity (phospho-p38)", "setting": "p38 map kinase", "result": "induces p38Map kinase activity"}
    ]},
    {"compound": "lipopolysaccharide [LPS]", "values": [
      {"measurement": "neutrophil and macrophage activation: CD11b and Ly6C expression", "setting": "peritoneal cells", "result": "increased"},
      {"measurement": "benefit on C. burnetii infection in vivo", "setting": "Phase II C. burnetii [1]; in vivo", "result": "No benefit"},
      {"measurement": "spleen C. burnetii numbers (PCR quantification of bacterial DNA)", "setting": "Phase II C. burnetii [1]; in vivo, ip", "result": "did not have an effect"},
      {"measurement": "C. burnetii content of infected cells", "setting": "[2]", "result": "less C. burnetii"}
    ]}
  ]
}
